The target in one assay is T1, ERα (Homo sapiens, UniProt P03372).
T1 construct: host or cells: MCF-7
T1 sequence (P03372 1-595): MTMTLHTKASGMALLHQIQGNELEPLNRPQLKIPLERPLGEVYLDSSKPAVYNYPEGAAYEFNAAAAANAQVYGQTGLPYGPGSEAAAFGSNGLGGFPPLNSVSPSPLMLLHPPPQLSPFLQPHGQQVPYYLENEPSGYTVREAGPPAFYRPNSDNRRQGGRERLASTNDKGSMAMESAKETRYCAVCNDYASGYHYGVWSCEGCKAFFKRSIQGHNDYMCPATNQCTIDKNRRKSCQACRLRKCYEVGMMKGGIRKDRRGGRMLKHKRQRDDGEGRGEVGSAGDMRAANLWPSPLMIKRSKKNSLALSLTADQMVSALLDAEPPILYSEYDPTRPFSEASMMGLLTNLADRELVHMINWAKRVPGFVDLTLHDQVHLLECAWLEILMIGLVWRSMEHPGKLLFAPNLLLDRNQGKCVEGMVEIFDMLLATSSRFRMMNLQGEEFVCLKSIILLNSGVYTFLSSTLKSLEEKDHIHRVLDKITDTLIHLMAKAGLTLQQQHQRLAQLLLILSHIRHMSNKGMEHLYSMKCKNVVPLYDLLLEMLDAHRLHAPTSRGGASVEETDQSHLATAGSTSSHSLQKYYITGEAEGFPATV
The experiment in a line: Degradation effect on ERα in MCF-7 cells (ERα Duoset ELISA). The class given is cell-based. As to conditions: MCF7; compound at 3 μM, relative to positive control AZD-9496 at 3 μM set to 100%. The protocol: In order to determine the degradation effect on ER induced by the compound of present invention, the following method was used to determine the degradation effect of the compounds of the present invention on ER.
MCF-7 cell line (TChu 74, Cell Bank of Chinese Academy of Sciences typical culture preservation Committee)
ERα Duoset Kit (#DYC5715E, R&D System)
MCF-7 cells well incubated in DMEM/F-12 medium containing 10% FBS.
On the first day of the experiment, MCF-7 cells were resuspended in DMEM/F-12 medium containing 10% FBS treated by activated carbon, then inoculated into a 48-well plate with a density of 50,000 cells/well and incubated for 22-24 hours.
On the second day of the experiment, the test compound was diluted with medium and added to a 48-well plate. The ERα-capture antibody was diluted to 1 μg/ml with PBS, and added with 100 μl/well to a 96-well plate at 100 μl/well. The plate was sealed and coated overnight at room temperature.
On the third day of the experiment, the coated 96-well plate was washed twice with PBS, added with a sealing solution (1% BSA in PBS) at 110 μl/well and sealed for 1 hour at room temperature. The 48-well plate was washed once and the residual liquid was removed. Then, 60 μl of lysis buffer (6 M urea, 1 mM EDTA, 0.5% Triton X-100, 1 mM PMSF, Protease Inhibitor cocktail) was added to each well. After lysis on ice for 15 minutes, the diluent (1 mM EDTA, 0.5% TritonX-100 dissolved in PBS) was added. The cell-diluted lysate was transferred to a 96-well plate at 100 μl/well, then the plate was incubated at room temperature for 2 hours. The diluted primary antibody was added after the plate was washed 4 times with a washing liquid (PBST). After incubation for 1 hour, the 96-well plate was washed 4 times, and the second antibody was added, then the plate was incubated for 30 minutes. After the plate was washed with a washing liquid, TMB chromogenic solution was added and incubated for 15 minutes. The reaction was stopped by the addition of 1 M H2SO4, then the light absorption at a wavelength of 450 nm was read. The degradation effect of the compound AZD9496 at 3 μM was set to 100%, the Emax of other compounds=(ODnegative control−ODcompound 3 μM)/(ODnegative control−ODAZD9496 3 μM)×100%, and the negative control was a well with DMSO.
A general note: In an ELISA, binding on a coated surface is turned into a signal by an enzyme label.

The next assay deals with MCF7 cells. The experiment in a line: Inhibition of the proliferation of MCF7 cells (Cell Titer-Glo). The class given is cell-based. As to conditions: Homo sapiens, MCF-7 cells, 72 hours, read-out: IC50 value of inhibition effect on the proliferation of MCF7 cells. In short, it runs like this:
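MCF-7 cells seeded 24 h, then treated with compound (0.5% DMSO final) in 2% FBS medium for 72 h at 37 °C; viability read by CellTiter-Glo luminescence. IC50 from luminescence vs log concentration; maximum inhibition scaled to AZD9496 at 100 nM set as 100%.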

Regarding `CC(C)c1ccc(N2[C@H](c3ccc(/C=C/C(=O)O)cc3)c3ccc(-c4cnn(C)c4)cc3C[C@H]2C)cc1` [Example 42, (E)-3-(4-((1R,3R)-2-(4-Isopropylphenyl)-3-methyl-6-(1-methyl-1H-pyrazol-4-yl)-1,2,3,4-tetrahydroisoquinolin-1-yl)phenyl)acrylic acid], the Emax at 3 µM at ERα was determined as 112%. Besides, the IC50 in the assay with MCF7 cells amounted to 0.34 nM.
For `CCn1cc(-c2ccc3c(c2)CC(C)N(c2ccc(C(C)C)cc2)C3c2ccc(/C=C/C(=O)O)cc2)cn1` [Example 7, (E)-3-(4-((1R,3R/1S,3S)-6-(1-Ethyl-1H-pyrazol-4-yl)-2-(4-isopropylphenyl)-3-methyl-1,2,3,4-tetrahydroisoquinolin-1-yl)phenyl)acrylic acid] the same measures were 118% and 0.86 nM.
`CCc1ccc(N2C(C)Cc3cc(-c4cnn(C)c4)ccc3C2c2ccc(/C=C/C(=O)O)cc2)cc1` [Example 1, (E)-3-(4-((1R,3R/1S,3S)-2-(4-Ethylphenyl)-3-methyl-6-(1-methyl-1H-pyrazol-4-yl)-1,2,3,4-tetrahydroisoquinolin-1-yl)phenyl)acrylic acid]: the Emax at 3 µM on ERα was 115%. In addition, in the assay with MCF7 cells, the IC50 was 0.37 nM.
For `CCn1cc(-c2ccc3c(c2)C[C@@H](C)N(c2ccc(C4CC4)cc2)[C@@H]3c2ccc(/C=C/C(=O)O)cc2)cn1` [Example 14, (E)-3-(4-((1R,3R)-2-(4-Cyclopropylphenyl)-6-(1-ethyl-1H-pyrazol-4-yl)-3-methyl-1,2,3,4-tetrahydroisoquinolin-1-yl)phenyl)acrylic acid] the same measures were 147% and 0.53 nM.
In the case of `C[C@@H]1Cc2cc(-c3cnn(C)c3)ccc2[C@@H](c2ccc(/C=C/C(=O)O)cc2)N1c1ccc(C2CC2)cc1` [Example 11, (E)-3-(4-((1R,3R)-2-(4-Cyclopropylphenyl)-3-methyl-6-(1-methyl-1H-pyrazol-4-yl)-1,2,3,4-tetrahydroisoquinolin-1-yl)phenyl)acrylic acid], the Emax at 3 µM at ERα was 134%. For the same compound, the IC50 in the assay with MCF7 cells was 1.47 nM.
For `CCn1cc(-c2ccc3c(c2)C[C@@H](C)N(c2ccc(C(C)C)cc2)[C@@H]3c2ccc(/C=C/C(=O)O)cc2)cn1` [Example 8, (E)-3-(4-((1R,3R)-6-(1-Ethyl-1H-pyrazol-4-yl)-2-(4-isopropylphenyl)-3-methyl-1,2,3,4-tetrahydroisoquinolin-1-yl)phenyl)acrylic acid] the same measures were 129% and 0.17 nM.

Usually Emax stands for the greatest response seen or fitted, relative to the assay's reference.

The values are drawn from patent US10398689B2, “Benzopiperidine derivative, preparation method thereof and medical use thereof” (Jiangsu Hengrui Medicine Co., Ltd., priority 2015, dated 2019).
